Laboratory results published in patent publication US9347942B2, “Ultrasensitive cell based sensors and uses thereof” (CANVAX BIOTECH SL, priority 2010, dated 2016).

Tests used:
Format in all cases: cell-based
CHRM2 [1] = molecular target: T1, CHRM2 (Homo sapiens, UniProt P08172); assay: Number of steps needed, 384 well mix and read assay (Example 13); conditions: carbachol 10 uM, 5.000 cells, only 15 uL of medium aspirated, 30 minutes
T1 construct: the entire human GPCR; mouse immunoglobulin kappa signal peptide (N); expressed in transfected cells
T1 sequence (P08172 2-466): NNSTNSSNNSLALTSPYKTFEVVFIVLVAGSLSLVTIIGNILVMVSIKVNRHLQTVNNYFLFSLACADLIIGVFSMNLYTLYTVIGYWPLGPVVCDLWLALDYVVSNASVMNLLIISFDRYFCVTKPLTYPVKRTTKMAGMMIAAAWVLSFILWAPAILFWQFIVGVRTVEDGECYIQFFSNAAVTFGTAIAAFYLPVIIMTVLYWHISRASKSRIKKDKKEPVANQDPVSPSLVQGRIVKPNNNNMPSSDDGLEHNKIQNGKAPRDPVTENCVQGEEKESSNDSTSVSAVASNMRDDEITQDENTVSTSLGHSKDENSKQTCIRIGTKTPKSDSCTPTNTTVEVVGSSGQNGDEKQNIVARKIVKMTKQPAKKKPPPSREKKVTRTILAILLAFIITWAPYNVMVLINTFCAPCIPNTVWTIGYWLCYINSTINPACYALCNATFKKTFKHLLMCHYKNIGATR
Excerpt: This experiment was designed to test how many steps are needed for an assay with the cell based sensor, in particular if a washing step is needed before assay. As the RBL-2H3 is an adherent cell line at least one step of aspiration of cell culture medium is needed. If all cell culture medium is aspirated then cells should become dry and eventually die in particular if there is a time interval between aspiration and addition of compounds to test for exocytosis. For this reason an additional treatment was included were not all cell culture medium is aspirated. But if not all the cell culture medium is aspirated then some of the reporter secreted by cells after overnight culture contributes to basal exocytosis. CHRM2 and granzyme B expressing cells from example #12 were used in this experiment but cells were seeded 16 hours before experiment at 5.000 cells per well of a 384 well plate with black walls in 20 uL of culture medium. Before experiment three treatments were made: (1) discarding all the 20 uL of medium without washing; (2) discarding only 15 uL of cell culture medium and (3) discarding only 15 uL of cell culture medium and washing of the cells using 75 uL of Hanks Balanced Salt Solution (HBSS) containing 0.1% BSA and aspiration of 75 uL of washing buffer. […] Plates were incubated at 37° C. in the fluorescence reader and read at 0, 15, 30, 45 and 60 minutes. […]

CHRM2 [2] = molecular target: T1, CHRM2; assay: Agonist-induced exocytosis of granzyme B, sandwich ELISA (Example 9); conditions: agonist 10 uM, 60 minutes
Excerpt: Human granzyme B was selected as reporter, chimeric promoter of hCMV-MoLV5′LTR as promoter for reporter expression, RBL-2H3 as hemopoyetic cells with professional regulated exocytosis and several GPCRs as exocytosis modulators under the control of Moloney Leukaemia virus 5′-LTR (MoMLV5′LTR, SEQ ID NO:3) as promoter for expression of exocytosis modulators. […] Vectors for expression of granzyme B had the chimeric promoter of hCMV-MoLV5′LTR-GranzymeB-IRES-NGFR with hygromycin resistance for stable transfections. Vectors for GPCR were electroporated first, cells were selected with neomycin at 500 ug/mL for about two weeks and cells were analysed by flow cytometry (Guava Technologies, USA) with anti-cmyc tag antibody (anti-cmyc-FITC, clone 9E10, Sigma-Aldrich, USA) for surface expression. Positive cells were separated by magnetic separation using anti-cmyc monoclonal antibody conjugated to biotin (Miltenyi Biotec, Germany) and streptavidin-MACS (Miltenyi Biotec, Germany). After growing positive fraction of cells was again analysed by flow cytometry with the anti-cmyc tag antibody. Positive cells were individually electroporated with the vector for expression human granzyme B using a microporator (Digital Bio Technology, South Korea) and after 48 hours hygromycin at 1500 ug/mL and neomycin at 500 ug/mL were added to culture for selection. After selection for about 2 weeks cells were analysed by flow cytometry (Guava Technologies, USA) with an antibody against NGFR coupled to FITC. Positive population where magnetically separated by MACS using anti-NGFR-MACS sup.R (Miltenyi Biotec, Germany). Sorted populations were again analysed again by flow cytometry to check both the expression of the GPCR with the anti-cmyc tag antibody and with anti-NGFR antibody to check granzyme B expression. […] GPCRs included were: SSTR2 and CHRM2 as alpha-i coupled GPCRs; AGTR1 and bradykinin type B1 receptor (BDKRB1) as alpha-q coupled GPCRs and AVPR2 as alpha-s coupled GPCR. […] Cells were seeded the night before experiment at 100.000 cells per well of a 96-well microplate in 100 uL of complete cell culture medium. Next day cells were washed with HBSS buffer and incubated with the ligand (agonist) at 10 uM of each GPCR in 30 uL of HBSS buffer at 37 Celsius degrees for 60 minutes and after centrifugation at 400 g for 5 minutes supernatants were analysed for human granzyme B protein by a sandwich ELISA specific for human granzyme B (Ucytech, Netherlands).

CHRM2 [3] = molecular target: T1, CHRM2; assay: Multiplex assay, Sensor B channel (CHRM2 and granzyme B) (Example 14); conditions: granzyme B substrate 1 uM
Excerpt: The principle of multiplex reactions is illustrated in FIG. 5. RBL2H3 cells were stably transfected with a pair of a GPCR as exocytosis modulator and a granzyme as a granule stored reporter as described in example 9. Combinations included were: hIL8 receptor (hIL8RA) and human granzyme A (Sensor A) and CHRM2 and granzyme B expressing cells of example #12 (Sensor B). Human IL8 was used as agonist of hll_8R while carbachol was used as CHRM2 agonist. […] As both substrates uses the same pair of fluorophore (FAM) and quencher (TAMRA) only one substrate could be added to reaction vessel for specific detection at 535 nm after excitation at 485 nm. […] Sensors, agonists and substrates were mixed in a total volume of 20 uL of HBSS in a black walled 384 well microplate and the microplate was incubated at 37 Celsius degrees in a BMG-Labtech microplate fluorimeter and read at 0, 15, 30, 45 and 60 minutes.

For C[N+](C)(C)CCOC(N)=O [Carbachol, carbachol], the signal to background (CHRM2 [1]) was 8-10, the “Absorbance at maximal dilution of ELISA tested” value (CHRM2 [2]; 100.000 cells, dilution 2250, after subtraction of 0.2 blank) was 0.6 and the “Sensitivity (minimal amount of cells needed)” value (CHRM2 [2]; granzyme B ELISA) was less than 150 cells. The “Signal to background at 30 min” value (CHRM2 [3]; Condition 7: 5000 cells Sensor B, carbachol 10 uM) was 20 and the “Signal to background at 30 min” value (CHRM2 [3]; Condition 10: Sensor A 12500 + Sensor B 5000 cells, IL8 10 uM + carbachol 10 uM) was 20.
